# In patent US20260306434A1, “VERY LONG CHAIN FATTY ACIDS FOR USE IN MINERALIZATION” (Epax Norway AS, priority 2023, published 2026):
# Tests used:
# [1] = tested on: primary Atlantic salmon keratocytes; test: Cell migration of primary Atlantic salmon keratocytes from scales (Ex. 2); assay type: cell-based; settings: 25 ng/mL; 24 h; vs control (P=0.0145)
# Method: In these cell culture experiments fatty acids were added to growth media in the form of their sodium salts bound to bovine serum albumin (BSA; 2.7:1 molar ratio). The pH was adjusted to 7 using NH4OH. DHA was purchased from Sigma (Sigma Aldrich, Darmstadt, Germany). The n-3 VLCPUFA 26:6 n-3 and VLC-Conc2 (Table 1.1) were both prepared as 1-mM stock solutions and DHA was prepared as an 8-mM stock solution. All fatty acid solutions were stored at −80° C.
# Growth medium (GM) was prepared as L-15 (11544436, Fischer Scientific) supplemented with 5% FBS (F2442, Sigma-Aldrich), 1% anti/anti (A5955, Sigma-Aldrich; 15240062 Fischer Scientific), and 1% HEPES (H0887, Sigma-Aldrich). The test substrates added were either 25 ng/mL fibroblast growth factor (FGF) (106096-93-9, Sigma-Aldrich), 10 μM VLCPUFA (26:6 n-3), or 20 μM VLCPUFA (26:6 n-3). Controls were left untreated. […]
# The day after isolation, all wells were inspected under a microscope to determine the migration potential of the scales. All scales with migration were counted to determine the immediate effect of the VLCPUFA on cell migration. […] The number of scales with cell migration was counted and divided by the number of attached scales to calculate the percentage of scales with cell migration, as attachment is a prerequisite for cell migration. […]
# For histology, five fish from each tank, giving a total of 15 fish per treatment, were analysed. […]
# [2] = tested on: hFOB 1.19 human foetal osteoblasts; test: Fatty acid composition of hFOB cells (Ex. 4); assay type: cell-based; settings: 2 μM; 7 days
# Method: Total lipids were extracted from homogenised tissue or sonicated extracts of cells (for Ex. 4) following the method previously described by Folch et al., For both skin tissue and whole-body analyses, pooled samples from each tank (n=10 per tank, n=30 per diet group) were analysed for lipid composition. For cells, three individual cell culture flasks per treatment group were analysed. The fatty acid composition was analysed using the method described by Mason and Waller.
# Methyl esters were separated and analysed in a GC (Hewlett Packard 6890; HP) with a split injector using an SGE BPX70 capillary column (length, 60 m; internal diameter, 0.25 mm; and film thickness, 0.25 um; SGE Analytical Science) flame ionsation detector, and HP chem Station software. Helium was used as the carrier gas, and both the injector and detector temperatures were 280° C. The oven temperature started at 50° C. for 1.2 min and then increased […] to 170° C. at a rate of 4° C./min, followed by 200° C. at a rate of 0.5° C./min, and finally 280° C. at a rate of 10° C./min. The individual fatty acid peaks were identified by comparing the retention times with validated standards; GLC reference 463 and 85 (Nu-chek Prep, Elysian, MN). The absolute amount of fatty acid per gram of tissue or cells was calculated using 23:0 methyl ester as an internal standard (IS). Unidentified peaks were not included in the total fatty acid calculation.
# The VLC-PUFA composition of cells and whole-body extracts was analysed using a Scion TQ 8300 GC-MS/MS with a split/splitless injector (splitless 1 min) with a Restek Rxi-5 ms capillary column (length, 30 m; internal diameter, 0.25 mm; and film thickness, […]). Hydrogen was used as the carrier gas, with split-injection and detector temperatures of 250° C. and 270° C., respectively. The oven temperature started at 90° C. for 1.5 min and was ramped up to 220° C. at a rate of 30° C./min, then 275° C. at a rate of 1.21° C./min, and finally 310° C. at a rate of 6.5° C./min. The instrument was run in MRM mode with 79.1-77.1 and 79-55.1 as transitions for VLC PUFAs and 143.1-55.1 for C23:0. The response factor for DHA (relative to C23:0) was calculated using standard solutions of known concentrations of DHA and C23:0. As no standards for VLC fatty acids were available for the VLC-PUFAs, the same response factor as for DHA was assumed and used to calculate concentrations of VLC-PUFAs.
# A human foetal osteoblast cell line (hFOB 1.19, ATCC, CRL-11372) was used in the experiments. Cells were cultured according to the manufacturer's instructions. Basal medium comprised a 1:1 mixture of Ham's F12 Medium Dulbecco's Modified Eagle's Medium with 2.5 mM L-glutamine (without phenol red) (Sigma-Aldrich, Darmstadt, Germany). Complete growth medium was prepared using 0.3 mg/mL G418 (Sigma-Aldrich, Darmstadt, Germany) supplemented with 10% foetal bovine serum (T7524, Sigma-Aldrich, Darmstadt, Germany). Cells were incubated at 34° C., with 5% C02 (In-Vitro Cell NU-8600E, NUAIRE, Minnesota, U.S.) and sub-cultured at approximately 80% confluency at a ratio of 1:4. Growth medium was renewed every 2-3 days. Cells cultured for differentiation were supplemented with osteogenic factors, ascorbic acid (100 μg/mL; A8960, Sigma-Aldrich, Darmstadt, Germany) and β-glycerophosphate (10 mM; G9422, Sigma-Aldrich, Darmstadt, Germany). Once the cells reached confluency, the temperature was increased to 37° C. to stop proliferation and induce differentiation. The osteogenic media was renewed every 2-3 days.
# Fatty acids were added to the growth media in the form of their sodium salts bound to bovine serum albumin (BSA, Sigma-Aldrich, Darmstadt, Germany; 2.7:1 molar ratio). The pH was adjusted to 7 using NH4OH. n-3 VLC-PUFA (the VLC-PUFA concentrate of Table 3.1, right column) and DHA (Sigma-Aldrich, Darmstadt, Germany) concentrates were prepared as 1 and 8 mM stocks, respectively, and were added to the media at concentrations of 1 and 2 μM. […]
compound,measurement,setting,value
fibroblast growth factor [FGF],scales with cell migration,[1],significant difference
"CC/C=C\C/C=C\C/C=C\C/C=C\C/C=C\C/C=C\CCC(=O)O [DHA, docosahexaenoic acid]","14:0, mean",[2],38.3 μg/g sample
same,"16:0, mean",[2],648.5 μg/g sample
same,"16:2 n-6, mean",[2],52.5 μg/g sample
same,"17:0, mean",[2],12.5 μg/g sample
same,"18:0, mean",[2],315.8 μg/g sample
same,"18:1 n-7, mean",[2],135.0 μg/g sample
same,"18:1 n-9, mean",[2],554.6 μg/g sample
same,"18:2 n-6, mean",[2],40.6 μg/g sample
same,"18:3 n-6, mean",[2],11.5 μg/g sample
same,"20:0, mean",[2],10.1 μg/g sample
same,"20:1 n-9, mean",[2],16.2 μg/g sample
same,"20:1 n-11, mean",[2],7.1 μg/g sample
same,"20:2 n-6, mean",[2],18.8 μg/g sample
same,"20:3 n-6, mean",[2],20.6 μg/g sample
same,"20:4 n-3, mean",[2],8.8 μg/g sample
same,"20:4 n-6, mean",[2],106.7 μg/g sample
same,"20:5 n-3, mean",[2],19.3ab μg/g sample
same,"22:0, mean",[2],7.3 μg/g sample
same,"22:4 n-6, mean",[2],13.7 μg/g sample
same,"22:5 n-3, mean",[2],26.2 μg/g sample
same,"24:1 n-9, mean",[2],3.9 μg/g sample
same,"24:5 n-3, mean",[2],76.5 μg/g sample
same,"24:6 n-3, mean",[2],56.5 μg/g sample
same,"26:5 n-3, mean",[2],1.7ab μg/g sample
same,"26:6 n-3, mean",[2],3.3ab μg/g sample
same,"28:8 n-3, mean",[2],0.0a μg/g sample
same,"SUM EPA/DHA, mean",[2],115.6b μg/g sample
same,"SUM FA, mean",[2],2670.3 μg/g sample
same,"Sum of MUFAs, mean",[2],871.5 μg/g sample
same,"Sum of SFAs, mean",[2],1045.0 μg/g sample
same,"Sum of n-3 PUFAs, mean",[2],164.0ab μg/g sample
same,"Sum of n-6 PUFAs, mean",[2],226.2 μg/g sample
same,"Sum others, mean",[2],168.3 μg/g sample
